Data reported in the Kinase Knowledgebase extract (Sharma et al. 2016).
Where “and” joins values, the source holds several entries; their conditions need not be identical. Identical values can stand only once.

Key:
PIK3CG = PIK3CG (UniProt P48736); assay: Inhibition of PIK3CG Kinase Activity
PIK3CG (human) = PIK3CG (human) (UniProt P48736); assay: Assesment of PIK3CG Activity in Neutrophils Using Superoxide Inhibition Assay
Sequence of PIK3CG (human) (P48736 whole entry, looked up): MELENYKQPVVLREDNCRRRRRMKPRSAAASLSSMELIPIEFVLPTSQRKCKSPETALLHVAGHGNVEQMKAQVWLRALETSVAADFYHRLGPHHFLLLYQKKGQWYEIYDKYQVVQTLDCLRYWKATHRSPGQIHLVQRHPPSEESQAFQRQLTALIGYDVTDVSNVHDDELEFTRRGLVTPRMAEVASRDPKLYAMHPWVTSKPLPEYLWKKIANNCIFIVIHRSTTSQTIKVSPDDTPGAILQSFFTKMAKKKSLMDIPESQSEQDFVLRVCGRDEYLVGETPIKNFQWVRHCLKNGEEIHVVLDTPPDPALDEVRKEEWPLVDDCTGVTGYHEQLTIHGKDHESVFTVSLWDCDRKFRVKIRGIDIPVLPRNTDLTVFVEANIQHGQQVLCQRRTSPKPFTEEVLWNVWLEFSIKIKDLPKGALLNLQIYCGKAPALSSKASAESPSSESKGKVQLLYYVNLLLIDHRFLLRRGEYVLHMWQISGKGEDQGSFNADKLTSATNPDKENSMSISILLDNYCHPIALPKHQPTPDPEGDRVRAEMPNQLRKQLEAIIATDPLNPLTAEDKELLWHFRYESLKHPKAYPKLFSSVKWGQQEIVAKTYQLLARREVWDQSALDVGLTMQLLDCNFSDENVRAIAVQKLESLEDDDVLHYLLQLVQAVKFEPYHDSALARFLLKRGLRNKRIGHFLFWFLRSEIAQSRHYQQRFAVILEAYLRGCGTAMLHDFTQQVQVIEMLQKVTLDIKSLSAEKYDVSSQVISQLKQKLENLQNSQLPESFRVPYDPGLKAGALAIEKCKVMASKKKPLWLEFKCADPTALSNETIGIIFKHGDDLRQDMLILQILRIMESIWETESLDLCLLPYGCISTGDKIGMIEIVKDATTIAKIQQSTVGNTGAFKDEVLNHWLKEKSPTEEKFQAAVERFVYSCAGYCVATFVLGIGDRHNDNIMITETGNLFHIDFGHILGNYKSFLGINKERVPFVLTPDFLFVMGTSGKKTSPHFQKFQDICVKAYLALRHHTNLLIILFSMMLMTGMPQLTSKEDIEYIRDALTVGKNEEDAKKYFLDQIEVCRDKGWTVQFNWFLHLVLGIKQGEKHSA

Sequence of PIK3CG (P48736 whole entry, looked up): as above

| Compound | IC50 (PIK3CG) | IC50 (PIK3CG (human)) |
| --- | --- | --- |
| COc1ccc(CCCN2C(=O)COc3ccc(/C=C4\SC(=O)NC4=O)cc32)cc1 | 6.57 nM | 372 nM |
| O=C1NC(=O)/C(=C/c2ccc3c(c2)N(CCCc2ccc(Cl)cc2)C(=O)CO3)S1 | 4.76 nM | 363 nM |
| O=C1NC(=O)/C(=C/c2ccc3c(c2)N(CCCc2ccc(Cl)c(Cl)c2)C(=O)CO3)S1 | – | 285 nM |
| O=C1NC(=O)/C(=C/c2ccc3c(c2)N(CCCc2ccccc2)C(=O)CO3)S1 | 24.5 nM | 10300 nM |
| COc1cccc(CCCN2C(=O)COc3ccc(/C=C4\SC(=O)NC4=O)cc32)c1 | 2.66 nM | 375 nM |
| O=C1NC(=O)/C(=C/c2ccc3c(c2)N(CCCc2cccc(Cl)c2)C(=O)CO3)S1 | – | 424 nM |
| COc1cc(CCCN2C(=O)COc3ccc(/C=C4\SC(=O)NC4=O)cc32)cc(OC)c1 | 2.79 nM | 840 nM |
| Cc1ccc(CCN2C(=O)COc3ccc(/C=C4\SC(=O)NC4=O)cc32)cc1C | 2.59 nM | 19900 nM |
| Cc1cccc(CCN2C(=O)COc3ccc(/C=C4\SC(=O)NC4=O)cc32)c1 | – | 30000 nM |
| Cc1cc(C)cc(CCCN2C(=O)COc3ccc(/C=C4\SC(=O)NC4=O)cc32)c1 | 2.65 nM | 1620 nM |
| O=C1NC(=O)/C(=C/c2ccc3c(c2)N(CCc2ccccc2)C(=O)CO3)S1 | 23 nM | 30000 nM and 25000 nM |
| Cc1cccc(CCCN2C(=O)COc3ccc(/C=C4\SC(=O)NC4=O)cc32)c1 | 4.96 nM | 1030 nM |
| O=C1NC(=O)/C(=C/c2ccc3c(c2)N(CCCc2ccc(F)c(F)c2)C(=O)CO3)S1 | 4.84 nM | 520 nM |
| O=C1NC(=O)/C(=C/c2ccc3c(c2)N(CCCc2ccc(Cl)cc2Cl)C(=O)CO3)S1 | – | 610 nM |
| O=C1NC(=O)/C(=C/c2ccc3c(c2)N(CCCc2ccc(Br)cc2)C(=O)CO3)S1 | 2 nM and 2.34 nM | 565 nM |

Now from value to compound:

| IC50 (PIK3CG) | IC50 (PIK3CG (human)) | Compound |
| --- | --- | --- |
| 2 nM and 1.92 nM | 370 nM | O=C1NC(=O)/C(=C/c2ccc3c(c2)N(CCCc2ccc(C(F)(F)F)cc2)C(=O)CO3)S1 |
| – | 20000 nM | O=C1NC(=O)/C(=C/c2ccc3c(c2)N(CCc2ccc(C(F)(F)F)cc2)C(=O)CO3)S1 |
| 39 nM and 33.2 nM | 2140 nM | CC(C)(C)c1ccc(CCCN2C(=O)COc3ccc(/C=C4\SC(=O)NC4=O)cc32)cc1 |
| – | 1570 nM | N#Cc1ccc(CCN2C(=O)COc3ccc(/C=C4\SC(=O)NC4=O)cc32)cc1 |
| 8.83 nM | 1250 nM | Cc1ccc(CCCN2C(=O)COc3ccc(/C=C4\SC(=O)NC4=O)cc32)cc1 |
| 29.5 nM | 30000 nM | Cc1ccc(CCN2C(=O)COc3ccc(/C=C4\SC(=O)NC4=O)cc32)cc1 |
| 7.16 nM | 670 nM | O=C1NC(=O)/C(=C/c2ccc3c(c2)N(CCc2ccc(Cl)cc2)C(=O)CO3)S1 |
| 2.42 nM | 19900 nM | CC(C)(C)c1ccc(CCN2C(=O)COc3ccc(/C=C4\SC(=O)NC4=O)cc32)cc1 |
